Data as given in US12263171B2, “7-, 8-, and 10-substituted amino triazolo quinazoline derivatives as adenosine receptor antagonists, pharmaceutical compositions and their use” (Merck Sharp & Dohme LLC, priority 2018, dated 2025).
pIC50: −log10 of the molar value.

What was measured:
[1] = molecular target: T1, human A2b adenosine receptor (Homo sapiens (Human), UniProt P29275); assay: A2B antagonism in cAMP cell-based assay (LANCE cAMP, HEK293 cells, 600 nM adenosine); conditions: for pIC50: values marked *: cAMP cell-based assay
[2] = molecular target: T2, human A2a adenosine receptor (Homo sapiens (Human), UniProt P29274); assay: A2A antagonism in cAMP cell-based assay (LANCE cAMP, HEK293 cells, 300 nM adenosine); conditions: values marked *: cAMP cell-based assay
Description: Measurement of A2A and A2B Antagonism in cAMP Cell-Based Assay
All subsequent liquid additions were performed using a multichannel pipettor. […] After this time 5 μL of either 300 nM or 600 nM adenosine (Sigma Cat. No. A9251) for A2A and A2B respectively was added and incubated for 30 minutes at 37° C. and 5% CO2 in a humidified environment. At this time detection mix was prepared by combining the LANCE Eu-W8044 labeled streptavidin and. Biotin-cAMP in detection buffer according to the manufacturers protocol. […] Curve fitting of the percent effect data versus the log of compound concentration used a 4-parameter concentration response curve fitting algorithm to calculate IC50 values.

[3] = molecular target: T1, human A2b adenosine receptor; assay: A2b radioligand filtration binding assay (tritiated proprietary A2b antagonist, HEK293 membranes); conditions: @ 10000 nM, unstarred
Summary of the method: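 Displacement of a tritiated proprietary A2b antagonist from membranes of HEK293 cells recombinantly expressing human A2b receptor, measured by filtration and scintillation counting. Percent effect was normalized to total and non-specific binding and fitted with a 4-parameter logistic to give IC50.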

[4] = molecular target: T2, human A2a adenosine receptor; assay: A2a receptor affinity radioligand binding assay ([3H] SCH58261, membranes from HEK293 or CHO cells); conditions: unstarred values: radioligand binding
Summary of the method: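 Displacement of tritiated SCH58261 (working dilution 4 nM) from recombinant human A2a receptor membranes (HEK293 or CHO), 60 min at room temperature in Tris pH 7.4/MgCl2 buffer after 15–30 min compound preincubation. Scintillation counting after filtration; normalized percent effect fitted 4-parameter logistic for IC50.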

T1 sequence (P29275 whole entry): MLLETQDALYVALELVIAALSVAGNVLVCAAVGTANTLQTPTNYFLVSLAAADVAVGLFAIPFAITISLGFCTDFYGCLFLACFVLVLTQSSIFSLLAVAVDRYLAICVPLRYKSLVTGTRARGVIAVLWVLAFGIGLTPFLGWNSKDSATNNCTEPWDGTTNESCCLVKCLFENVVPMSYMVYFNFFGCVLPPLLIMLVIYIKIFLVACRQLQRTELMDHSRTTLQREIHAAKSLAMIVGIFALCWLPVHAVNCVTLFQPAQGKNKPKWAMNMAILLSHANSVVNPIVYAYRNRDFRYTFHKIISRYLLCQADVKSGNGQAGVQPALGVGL
T2 sequence (P29274 whole entry): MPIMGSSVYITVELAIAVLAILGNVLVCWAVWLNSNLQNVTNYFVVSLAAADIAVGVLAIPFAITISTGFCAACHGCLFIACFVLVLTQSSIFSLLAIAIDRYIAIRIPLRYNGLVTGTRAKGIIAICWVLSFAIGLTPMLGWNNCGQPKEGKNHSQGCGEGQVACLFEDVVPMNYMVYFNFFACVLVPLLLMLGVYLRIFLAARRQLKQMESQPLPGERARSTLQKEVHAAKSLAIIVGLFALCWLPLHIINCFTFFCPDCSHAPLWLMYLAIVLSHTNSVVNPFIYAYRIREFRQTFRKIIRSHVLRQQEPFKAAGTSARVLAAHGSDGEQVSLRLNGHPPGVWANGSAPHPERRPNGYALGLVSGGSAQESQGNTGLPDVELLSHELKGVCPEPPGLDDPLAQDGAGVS

SMILES	pIC50 [1]	pIC50 [2]	A2B binding % inh. @ 10000 nM [3]	*A2B cAMP % inh. @ 10000 nM ([1]; @ 10000 nM, marked *)	pIC50 [4]
COc1cccc2c1nc(N)n1nc(C3CCC(C)N(c4cnn(C(C)(C)CO)c4)C3)nc21 (single isomer, unassigned) [Example 146C]	5.66	6.99	–	–	–
COc1ccc2c(c1)nc(N)n1nc([C@@H]3C[C@@H](C(F)(F)F)CN(c4cnn(CC(C)(C)O)c4)C3)nc21 (single isomer, unassigned) [Example 218B, 1-(4-((3R,5R or 3S,5S)-3-(5-amino-8-methoxy-[1,2,4]triazolo[1,5-c]quinazolin-2-yl)-5-(trifluoromethyl)piperidin-1-yl)-1H-pyrazol-1-yl)-2-methylpropan-2-ol]	< 5.00	6.20	–	–	–
COc1cccc2c1nc(N)n1nc([C@@H]3CCCN(c4cc(C(F)(F)F)ccn4)C3)nc21 [Example 116, (R)-7-melhoxy-2-(1-(4-(trifluoromethyl)pyridin-2-yl)piperidin-3-yl)-[1,2,4]triazolo[1,5-c]quinazolin-5-amine]	–	7.39	18% inh. @ 10000 nM	–	–
COc1cccc2c1nc(N)n1nc([C@@H]3CCCN(c4ccc(C(F)(F)F)cn4)C3)nc21 [Example 118, (R)-7-methoxy-2-(1-(5-(trifluoromethyl)pyridin-2-yl)piperidin-3-yl)-[1,2,4]triazolo[1,5-c]quinazolin-5-amine]	6.98	7.97	–	–	–
COc1cccc2c1nc(N)n1nc([C@H]3CC[C@@H](C)N(c4cn(CC(C)(C)O)nc4C)C3)nc21 [Example 145D, 1-(4-((2R,5S)-5-(5-amino-7-methoxy-[1,2,4]triazolo[1,5-c]quinazolin-2-yl)-2-methylpiperidin-1-yl)-3-methyl-1H-pyrazol-1-yl)-2-methylpropan-2-ol]	6.34	7.52	–	–	–
COc1ccc2c(c1)nc(N)n1nc([C@H]3C[C@@H](C)CN(c4cn([C@H](C)[C@@H](C)O)nc4C)C3)nc21 [Example 219C, (2R,3R)-3-(4-((3S,5R)-3-(5-amino-8-methoxy-[1,2,4]triazolo[1,5-c]quinazolin-2-yl)-5-methylpiperidin-1-yl)-3-methyl-1H-pyrazol-1-yl)butan-2-ol]	5.25	7.41	–	–	–
COc1ccc2c(c1)nc(N)n1nc([C@@H]3C[C@H](C)CN(c4cn([C@@H](C)[C@H](C)O)nc4C)C3)nc21 [Example 219D, (2S,3S)-3-(4-((3R,5S)-3-(5-amino-8-methoxy-[1,2,4]triazolo[1,5-c]quinazolin-2-yl)-5-methylpiperidin-1-yl)-3-methyl-1H-pyrazol-1-yl)butan-2-ol]	–	7.35	–	33% inh. @ 10000 nM*	–
COc1ccc2c(c1)nc(N)n1nc([C@@H]3CCCN(c4cnn([C@@H](C)[C@@H](C)O)c4)C3)nc21 [Example 221A, (2R,3S)-3-(4-((R)-3-(5-amino-8-methoxy-[1,2,4]triazolo[1,5-c]quinazolin-2-yl)piperidin-1-yl)-1H-pyrazol-1-yl)butan-2-ol]	7.21	–	–	–	8.72
COc1ccc2c(c1)nc(N)n1nc([C@@H]3CCCN(c4cnn([C@H](C)[C@H](C)O)c4)C3)nc21 [Example 221B, (2S,3R)-3-(4-((R)-3-(5-amino-8-methoxy-[1,2,4]triazolo[1,5-c]quinazolin-2-yl)piperidin-1-yl)-1H-pyrazol-1-yl)butan-2-ol]	7.07	–	–	–	8.82
COc1ccc2c(c1)nc(N)n1nc([C@H]3C[C@H](C)CN(c4cnn(C(C)(C)CO)c4)C3)nc21 [Example 222B, 2-(4-((3S,5S)-3-(5-amino-8-methoxy-[1,2,4]triazolo[1,5-c]quinazolin-2-yl)-5-methylpiperidin-1-yl)-1H-pyrazol-1-yl)-2-methylpropan-1-ol]	5.76	7.20	–	–	–
COc1ccc2c(c1)nc(N)n1nc([C@H]3C[C@@H](C)CN(c4cnn(C(C)(C)CO)c4)C3)nc21 [Example 222C, 2-(4-((3S,5R)-3-(5-amino-8-methoxy-[1,2,4]triazolo[1,5-c]quinazolin-2-yl)-5-methylpiperidin-1-yl)-1H-pyrazol-1-yl)-2-methylpropan-1-ol]	7.87	–	–	–	9.40
COc1ccc2c(c1)nc(N)n1nc([C@@H]3C[C@@H](C)CN(c4cnn(C(C)(C)CO)c4)C3)nc21 [Example 222D, 2-(4-((3R,5R)-3-(5-amino-8-methoxy-[1,2,4]triazolo[1,5-c]quinazolin-2-yl)-5-methylpiperidin-1-yl)-1H-pyrazol-1-yl)-2-methylpropan-1-ol]	6.18	7.48	–	–	–
COc1cc(F)c2c(c1)nc(N)n1nc([C@@H]3CC[C@H](C)N(c4cnn(CC(C)(C)O)c4)C3)nc21 [Example 223, 1-(4-((2S,5R)-5-(5-amino-10-fluoro-8-methoxy-[1,2,4]triazolo[1,5-c]quinazolin-2-yl)-2-methylpiperidin-1-yl)-1H-pyrazol-1-yl)-2-methylpropan-2-ol]	7.68	–	–	–	9.00
COc1ccc(F)c2c1nc(N)n1nc([C@@H]3CC[C@H](C)N(c4cnn(CC(C)(C)O)c4)C3)nc21 [Example 224, 1-(4-((2S,5R)-5-(5-amino-10-fluoro-7-methoxy-[1,2,4]triazolo[1,5-c]quinazolin-2-yl)-2-methylpiperidin-1-yl)-1H-pyrazol-1-yl)-2-methylpropan-2-ol]	8.02	–	–	–	9.52
COc1ccc2c(c1)nc(N)n1nc([C@@H]3CCCN(c4cnn(C(C)(C)[C@H](C)O)c4)C3)nc21 [Example 225A]	7.49	–	–	–	8.92
COc1ccc2c(c1)nc(N)n1nc([C@@H]3CCCN(c4cnn(C(C)(C)[C@@H](C)O)c4)C3)nc21 [Example 225B]	7.11	–	–	–	8.49
